What was measured:
Assay type in all cases: in vivo, rat
Male Sprague-Dawley rats [1] = assay: Hot water tail-flick test, morphine withdrawal-induced thermal hyperalgesia
Method: (§1) Male Sprague-Dawley rats (175-200 grams, Harlan, Indianapolis, Ind.) were divided into two groups (n=8 per group). Rats received subcutaneous injections of either saline or morphine (10 mg/kg; Sigma, St. Louis, Mo.) twice daily at 0800 to 0900 and 1600-1700 hour for 5 days in order to induce opioid tolerance. Chronic morphine withdrawal-induced hyperalgesia and allodynia were assessed in the animals 16 hours after the last injection of morphine. Following the recording of morphine withdrawal-induced hyperalgesia and allodynia, animals were treated with morphine (5 microgram) acutely via lumbar intrathecal injection to study the expression of morphine tolerance. Acute analgesic activity or intrathecal morphine in morphine-tolerant and chronic aline-treated rats were evaluated by mechanical (Analgesy-Meter) and thermal (tail-flick) test paradigms. Behaviors recorded prior to the acute administration of intrathecal morphine served as the basal latency measures.
(§2) With an understanding of the effects of morphine alone, separate groups of rats (n=8) received with saline or morphine (10 mg/kg subcutaneously, twice daily for 5 days) and also received once daily injections (at 1100 to 1200 hour) of propentofylline (1 and 10 micrograms) or saline via direct lumbar puncture during the induction of morphine tolerance. Again, chronic morphine withdrawal-induced hyperalgesia and allodynia were assessed in the animals 16 hours after the last subcutaneous morphine injection. Following the recording of morphine withdrawal-induced hyperalgesia and allodynia, animals were treated with morphine (5 micrograms) acutely via lumbar puncture to study the expression of morphine tolerance. As before, the acute analgesic activity of intrathecal morphine in morphine-tolerant and saline-injected rats was evaluated by mechanical (Analgesy-Meter) and thermal (tail-flick) test paradigms. Behavior recorded prior to the acute administration of intrathecal morphine served as the basal latency.
Thermal nociceptive thresholds were evaluated by the hot water tail-flick test that has been described previously (Bian, D. et al. 1999. Brain Res. 831:55-63). The test consisted of immersing the tail of the rats in water maintained at 49° C. and then recording the latency to a rapid flick. A 15 second cut-off time was used. Again, the total number of responses elicited during three successive trials separated by at least 10 minutes was recorded and then expressed as the % maximal possible effect. The tester was again blinded to the test groups.

Male Sprague-Dawley rats [2] = assay: Paw pressure test (Analgesy-Meter), morphine withdrawal-induced mechanical hyperalgesia
Method: as §1, §2
(§3) In blinded testing, rats were subjected to sequential series of 10 tactile stimulations to the dorsal surface of the ipsilateral hindpaw using […] von Frey filaments (Stoelting Co., WoodDale, Ill.) sequentially. The number of foot withdrawals to this normally non-noxious stimulus determined mechanical allodynia. Mechanical sensitivity was assessed by recording the total number of responses elicited during three successive trials separated by at least 10 minutes. The pressure required to elicit paw withdrawal, the paw pressure threshold was determined.

Male Sprague-Dawley rats [3] = assay: Mechanical allodynia (von Frey filaments), morphine withdrawal
Method: as §1, §2
Mechanical sensitivity was measured as the frequency of foot withdrawals elicited by a defined mechanical stimulus. Each rat, under unrestrained conditions, was placed beneath an inverted, ventilated Plexiglas cage upon an elevated aluminum screen surface with 1 cm mesh openings. Animals had been previously acclimated to the environment and the experimenter.
as §3

Male Sprague-Dawley rats [4] = assay: Morphine tolerance model, acute intrathecal morphine evaluated by thermal and mechanical test paradigms; settings: chronic subcutaneous morphine 10 mg/kg twice daily for 5 days; noxious thermal and mechanical testing paradigms
Method: as §1
as §2, with “Following the recording of morphine withdrawal-induced hyperalgesia and allodynia, animals were treated with morphine (5 micrograms) acutely via lumbar puncture to study the expression of morphine tolerance.” left out
as §3
Thermal nociceptive thresholds were evaluated by the hot water tail-flick test that has been described previously (Bian, D. et al. 1999. Brain Res. 831:55-63). […] Again, the total number of responses elicited during three successive trials separated by at least 10 minutes was recorded and then expressed as the % maximal possible effect. […]

Mac-1 mRNA = assay: Real-time PCR of Mac-1 mRNA at L5 lumbar spinal cord; settings: compared to saline-treated controls; morphine 10 mg/kg twice daily 5 days, or propentofylline 10 micrograms intrathecally 5 days in saline-treated rats
Method: (§4) Total RNA was treated with DNase I (Ambion, Austin, Tex.) to remove DNA contamination before cDNA synthesis. The reverse transcription (RT) was carried out in a 100 μl total reaction volume containing RT buffer, dNTPs, multiscribe reverse transcriptase, RNase-free water and 10 μg of DNase-treated total RNA. The RT reaction was carried out at 25° C. for 10 minutes, 37° C. for 120 minutes, and 95° C. for 5 minutes. Real-time PCR analysis was performed using gene-specific primers and probes that were designed and blasted against GENBANK to confirm their species and gene specificity. […] The real-time PCR reactions were carried out using Platinum Taq DNA polymerase, 20 mM Tris HCl (pH 8.4), 50 mM KCl, 3 mM MgCl2, 200 μM dGTP, dCTP, and dATP, 400 μM of dUTP and 1 U uracyl DNA glycosylase (UDG), 900 nM forward and reverse primers, 300 nM TaqMan probe, and 10-fold dilution of cDNA (50 ng) from the RT step. Primers and probes for glyceraldehyde-3-phosphate (GADPH), GFAP and Mac-1 were obtained form Applied Biosystems (LaJolla, Calif.). The relative standard curves generated by plotting the threshold value versus the log of the amount of total cDNA added to the reaction (1-10000 pg) were used to compare the relative amount of target genes from control and chronic morphine-treated animals.

GFAP mRNA = assay: Real-time PCR of GFAP mRNA at L5 lumbar spinal cord; settings: compared to saline-treated controls; morphine 10 mg/kg twice daily 5 days, or propentofylline 10 micrograms intrathecally 5 days in saline-treated rats
Method: as §4

IL-1β mRNA = assay: RNase protection assay, cytokine mRNA at L5 lumbar spinal cord; settings: ratio of expression compared with saline-treated animals (=1), propentofylline 10 μg intrathecally 5 days, morphine 10 mg/kg twice daily 5 days
Method: (§6) After behavioral testing for reactions to the combined treatment, rats were sacrificed and decapitated. An 18-gauge needle was inserted into the caudal end of the vertebral column and the spinal cord was expelled with ice-cold phosphate-buffered saline. The spinal cord was frozen immediately on dry ice and stored at −80° C. until homogenization. The L5 lumbar spinal cord was isolated from the intact frozen cord at the time of mRNA and protein quantification. Total RNA was isolated from the L5 spinal cord by the TRIzol extraction method (Invitrogen Corporation, Carlsbad, Calif).
(§7) Assessment of the temporal cytokine mRNA expression in the L5 lumber spinal cord was performed using a Ribonuclease Protection Assay technique. A Multiprobe RPAse kit was used (Pharmingen, San Diego, Calif.). Total RNA (15 μg) was hybridized to ^32P-labeled antisense RNA probes transcribed using the rat cytokine-1 (rCK-1) multiprobe template set resulting in double-stranded target RNA. After Rnase digestion, protected RNA and probe were resolved on a denaturing polyacrylamide gel and visualized by overnight autoradiography. Quantitative image analysis was employed to compare mRNA levels based on band intensities for each cytokine. The intensity of each band was measured using image analysis software and assigned an arbitrary unit based on the measured intensity levels. The value for the normalized quantity for each band was obtained by dividing by the L32 house-keeping gene control. Individual mRNA concentration was calculated as the ratio of the expression compared with saline-treated animals in which normal values were weighted as 1.

IL-6 mRNA = assay: as above; settings: ratio of expression compared with saline-treated animals (=1), propentofylline 10 μg intrathecally 5 days, morphine 10 mg/kg twice daily 5 days
Method: as §6, §7

IL-1β protein = assay: Cytokine protein estimation by ELISA at L5 spinal cord; settings: ELISA, propentofylline 10 μg intrathecally 5 days, morphine 10 mg/kg twice daily 5 days
Method: (§5) Quantitative determination of IL-1β, TNF-α and IL-6 protein was performed on the L5 spinal cord of the rats. […] Briefly, weighed sections of L5 spinal cord were homogenized in a homogenization buffer consisting of a protease inhibitor using the a Power Gen 125 tissue tearer (Fisher Scientific, Suwanee, Ga.). Samples were spun at 20,000×g for 30 minutes at 4° C. Supernatant was aliquoted and stored at −80° C. for future protein quantification. IL-1β and TNF-α (R&D Systems, Minneapolis, Minn.) and IL-6 (Biosource, Camarillo, Calif.) protein concentrations were determined utilizing the quantitative sandwich enzyme immunoassay.

IL-6 protein = assay: as above; settings: ELISA, propentofylline 10 μg intrathecally 5 days, morphine 10 mg/kg twice daily 5 days
Method: as §5

TNF-α protein = assay: as above; settings: ELISA, propentofylline 10 μg intrathecally 5 days, morphine 10 mg/kg twice daily 5 days
Method: as §5

[5] = 16 hours after last injection, morphine 10 mg/kg s.c. twice daily 5 days and/or propentofylline 10 micrograms intrathecally once daily 5 days
[6] = 16 hours after last morphine injection (10 mg/kg s.c. twice daily 5 days), propentofylline 1 and 10 micrograms intrathecally for 5 days during induction of tolerance

SMILES: CN1CC[C@]23c4c5ccc(O)c4O[C@H]2[C@@H](O)C=C[C@H]3[C@H]1C5 [morphine]
- Tail-flick latency (Male Sprague-Dawley rats [1]; [5]): 3.7 ± 0.2 s
- morphine withdrawal-induced noxious thermal hyperalgesia (Male Sprague-Dawley rats [1]; [6]): led to withdrawal-induced thermal and mechanical hyperalgesia
- Paw pressure latency (Male Sprague-Dawley rats [2]; [5]): 69.8 ± 4.8 grams
- morphine withdrawal-induced mechanical hyperalgesia (Male Sprague-Dawley rats [2]; [6]): led to withdrawal-induced thermal and mechanical hyperalgesia
- morphine withdrawal-induced mechanical allodynia (Male Sprague-Dawley rats [3]; [6]): led to withdrawal-induced thermal and mechanical hyperalgesia and mechanical allodynia
- Mechanical allodynia (2 grams) (Male Sprague-Dawley rats [3]; number of foot withdrawals, 2 grams von Frey filament, morphine 10 mg/kg s.c. twice daily 5 days and/or propentofylline 10 micrograms intrathecally): 3.9 ± 0.5
- Mechanical allodynia (12 grams) (Male Sprague-Dawley rats [3]; number of foot withdrawals, 12 grams von Frey filament, morphine 10 mg/kg s.c. twice daily 5 days and/or propentofylline 10 micrograms intrathecally): 6.9 ± 0.7
- anti-nociceptive tolerance to acute intrathecal morphine (5 micrograms) (Male Sprague-Dawley rats [4]): demonstrated anti-nociceptive tolerance
- Mac-1 mRNA levels at the L5 lumbar spinal cord (Mac-1 mRNA): significant increases
- GFAP mRNA levels at the L5 lumbar spinal cord (GFAP mRNA): significant increases
- IL-1β mRNA at the L5 lumbar spinal cord (IL-1β mRNA): significantly increased
- IL-1β mRNA at the L5 lumbar spinal cord (IL-1β mRNA; listed as Morphine): 1.92 ± 0.14
- IL-6 mRNA at the L5 lumbar spinal cord (IL-6 mRNA): significantly increased
- IL-6 mRNA at the L5 lumbar spinal cord (IL-6 mRNA; listed as Morphine): 1.85 ± 0.16
- IL-1β protein level at the L5 lumbar spinal cord (IL-1β protein): significantly increased
- IL-1β protein level at the L5 lumbar spinal cord (IL-1β protein; listed as Morphine): 73.5 ± 9.2
- IL-6 protein level at the L5 lumbar spinal cord (IL-6 protein): significantly increased
- IL-6 protein level at the L5 lumbar spinal cord (IL-6 protein; listed as Morphine): 359 ± 62.4
- TNF-α protein level at the L5 lumbar spinal cord (TNF-α protein): not significantly increased
- TNF-α protein level at the L5 lumbar spinal cord (TNF-α protein; listed as Morphine): 36.6 ± 5.6
